Key:
Format in all cases: cell-based
cancer cell lines [1] = test: Garnett et al. drug screen re-analysed by TN/Agro/iBCR score; conditions: Garnett et al. study; for sensitivity (−log10[IC50]) of high TN score vs low TN score cell lines: dichotomy across median TN score; for sensitivity of high iBCR score vs low iBCR score cell lines: dichotomy across median iBCR score
Description: FIG. 24: Drug sensitivity of cancer cell lines according to the TN score. The large published study by Garnett et al. was investigated where the TN score was calculated for each cell line in the study as described in Methods. The cell lines were classified as high or low TN score according to the median TN score to compare the sensitivity of low TN score cell lines (white boxes) and high TN score cell lines (red boxes). Graphs were prepared using GraphPad® Prism showing sensitivity as −log 10[IC50] in boxes (with median marked by a line) and whiskers (marking the 1st and 3rd quartiles and outliers as dots according to Tukey method for plotting the whiskers and outliers). Unpaired two-tailed t test was used for statistical analysis.
FIG. 30: Drug sensitivity of cancer cell lines according to the iBCR score. The large published study by Garnett et al. was investigated where the iBCR score was calculated for each cell line from the Agro and TN scores. The cell lines were classified as high or low iBCR score according to the median iBCR score to compare the sensitivity of low iBCR score cell lines (white boxes) and […] (red boxes). Results according to low and high Agro score were also included.
(§1) Two large studies which treated large panels of cancer cell lines with large panels of anticancer drugs were investigated to determine whether cell lines with high Agro, TN or iBCR scores show different sensitivity to particular anticancer drugs in comparison to cancer cell lines with low Agro, TN or iBCR scores. Briefly, the datasets of gene expression profiling from Genentech (mRNA Cancer Cell Line Profiles GSE10843), Pfizer (Pfizer Molecular Profile Data for Cell Line GSE34211) and Broad Institute/Novartis (Cancer Cell Line Encyclopedia [CCLE] GSE3613) were obtained from GEO and imported into ArrayTools as described earlier. The Agro, TN and iBCR scores for all the cell lines profiled were calculated and cell lines were assigned as high or low for each of the scores based on dichotomy across the median in each dataset. For cell lines which were profiled in more than one dataset, the average scores were used. […] Statistical significance was determined from unpaired two-tailed t-test using GraphPad® Prism.
(§2) In the second approach, published studies which surveyed panels of molecular drugs against, cancer cell lines were analyzed. The Cancer Cell Line Encyclopedia (CCLE) study investigated the pharmacological profiles for 24 anticancer drugs across 479 cancer cell lines which were also profiled with gene expression arrays. We calculated the TN score for each cell line in this study and compared the sensitivity of these cell lines to the anticancer drugs according to the TN score. […] In a similar method, we also analyzed a second large study. Garnett et al., which tested 130 drugs against more than 600 cancer cell lines.

breast cancer cell lines = test: Screen of 24 anti-cancer drugs on 10 breast cancer cell lines (MTS/MTA, six days) re-analysed by iBCR score; conditions: 5 high vs 5 low iBCR score cell lines
Description: FIG. 47: The sensitivity of breast cancer cell lines treated with 24 drugs according to the iBCR score. Breast cancer cell lines (10 cell lines) were cultured in the absence or presence of escalating doses of 24 small molecular anti-cancer drugs. This published study was re-analyzed to compare the sensitivity (calculated as the −log IC50) between high iBCR score cell lines (5 cell lines: BT-549, MDA-MB-231, MDA-MB-436, MDA-MB-468 and BT-20) to low iBCR score cell lines (5 cell lines: Hs.578T, BT-474, MCF-7, T-47D, and ZR-75-1). The iBCR scores were calculated from the Agro and TN scores using the published gene expression dataset for 51 breast cancer cell lines (Neve et al., Cancer Cell, 2006). […] Statistical comparison was performed in GraphPad® Prism using two tailed unpaired t-test.
Breast cancer cell lines (10 cell lines); BT-549, MDA-MB-231, MDA-MB-436, MDA-MB-468, BT-20, Hs.578T, BT-474, MCF-7, T-47D, and ZR-75-1, were cultured in the absence or presence of escalating doses of 24 anti-cancer drugs. The survival of cells was determined six days in comparison to untreated cells using the MTS/MTA assay. The response of the cell lines to the drugs was analyzed in GraphPad® Prism using a dose response curve to calculate the log10 of IC50 (IC50 is the dose required to kill 50% of the cells). Sensitivity was presented as the −log10[IC50]. This drug screen which we published previously (Al-Ejeh et al., Oncotarget, 2014) was re-analyzed according to the iBCR score. The gene expression datasets of 51 breast cancer cell lines by Neve et al. (Cancer Cell, 2006), was analyzed to calculate the Agro and TN scores for each cell line to calculate the iBCR score. Each cell line was assigned as low of high iBCR score by dichotomy across the median of all the cell lines in the Neve et al. dataset. Based on the low or high iBCR score classification, the sensitivity of the 10 cell lines used in our screen was compared between high iBCR score cell lines (5 cell lines) to low iBCR score cell lines (5 cell lines). […] PLC[…] (U73122), INK (SP600125), PAK1 MEK (AS703026 and AZD6244), ERK5 (XMD 8-92 and BIX02188). HSP90 (17-AAa PF0429113 and AUY922), IGF1R (GSK1904529A) and EGFR (Afatinib). The results from our screen are in agreement with the higher sensitivity of high iBCR score cancer cell lines to HSP90, IGF1R and MEK inhibitors we identified from the two previously published large cell line studies.

cancer cell lines [2] = test: Cancer Cell Line Encyclopedia (CCLE) drug sensitivity re-analysed by TN/Agro/iBCR score; conditions: CCLE study; for sensitivity (IC50) of high TN score vs low TN score cell lines: dichotomy across median TN score; for sensitivity (IC50) of high iBCR score vs low iBCR score cell lines: dichotomy across median iBCR score
Description: (§3) FIG. 35: Sensitivity of cancer cell lines to anticancer drugs according to the TN score in the Cancer Cell Line Encyclopedia (CCLE) study. The gene expression data of the cancer cell lines in the study were analyzed to calculate the TN score for each cell line and were assigned to low or high TN score by dichotomy across the median. The IC50 for each of the 24 drugs used in the CCLE study was compared between high and low TN score cell lines and the data shown are those with statistical differences based on unpaired two-tailed t-test performed using GraphPad® Prism.
as §3, with “FIG. 42: Sensitivity of” for “FIG. 35: Sensitivity of”, “to the iBCR score in” for “to the TN score in”, “or high iBCR score by” for “or high TN score by”, “and low iBCR score cell” for “and low TN score cell”, “GraphPad® Prism. As this analysis was also done for the TN score (FIG. 35), results from analysis of the Agro score are also shown in the top row.” for “GraphPad® Prism.”
as §1, §2

Row | Compound | sensitivity (−log10[IC50]) of high TN score vs low TN score cell lines (cancer cell lines [1]) | sensitivity of high iBCR score vs low iBCR score cell lines (cancer cell lines [1]) | other results
1 | CC1(C)CCC(c2ccc(Cl)cc2)=C(CN2CCN(c3ccc(C(=O)NS(=O)(=O)c4ccc(N[C@H](CCN5CCOCC5)CSc5ccccc5)c(S(=O)(=O)C(F)(F)F)c4)cc3)CC2)C1 [ABT-263] | less sensitive | less sensitive | –
2 | C[C@]1(c2nc3c(C(N)=O)cccc3[nH]2)CCCN1 [ABT-888] | less sensitive | less sensitive | –
3 | O=C(NC[C@H](O)CO)c1ccncc1Nc1ccc(I)cc1F [AS703026] | – | – | sensitivity (−log10[IC50]) of high iBCR score vs low iBCR score breast cancer cell lines (breast cancer cell lines): significantly more sensitive
4 | CC1=C(/C=C/C(C)=C/C=C/C(C)=C/C(=O)O)C(C)(C)CCC1 [ATRA, all-trans retinoic acid] | less sensitive | less sensitive | –
5 | CCNC(=O)c1noc(-c2cc(C(C)C)c(O)cc2O)c1-c1ccc(CN2CCOCC2)cc1 [AUY922] | – | – | sensitivity (−log10[IC50]) of high iBCR score vs low iBCR score breast cancer cell lines (breast cancer cell lines): significantly more sensitive
6 | Cn1cnc2c(F)c(Nc3ccc(Br)cc3Cl)c(C(=O)NOCCO)cc21 [AZD6244] | – | – | sensitivity (−log10[IC50]) of high iBCR score vs low iBCR score breast cancer cell lines (breast cancer cell lines): significantly more sensitive
7 | O=C(c1cc(Cc2n[nH]c(=O)c3ccccc23)ccc1F)N1CCN(C(=O)C2CC2)CC1 [AZD-2281] | – | less sensitive | –
8 | CC[C@@H]1C(=O)N(C)c2cnc(Nc3ccc(C(=O)NC4CCN(C)CC4)cc3OC)nc2N1C1CCCC1 [B1-2536] | – | more sensitive | sensitivity of high Agro score vs low Agro score cell lines (cancer cell lines [1]): more sensitive
9 | COc1ccc(-c2cc3nccn3c(Nc3ncccc3C(N)=O)n2)cc1OC [BAY613606] | – | less sensitive | –
10 | Cn1c(=O)n(-c2ccc(C(C)(C)C#N)cc2)c2c3cc(-c4cnc5ccccc5c4)ccc3ncc21 [BEZ235] | more sensitive | more sensitive | –
11 | Cc1ccc(-n2nc(C(C)(C)C)cc2NC(=O)Nc2ccc(OCCN3CCOCC3)c3ccccc23)cc1 [BIRB 0796] | less sensitive | less sensitive | –
12 | Cc1cc(N2CCOCC2)cc2[nH]c(-c3c(NC[C@@H](O)c4cccc(Cl)c4)cc[nH]c3=O)nc12 [BMS-536924] | more sensitive | more sensitive | –
13 | CN(NC(=O)CC(=O)NN(C)C(=S)c1ccccc1)C(=S)c1ccccc1 [Elesclomol] | sensitive | – | –
14 | C#Cc1cccc(Nc2ncnc3cc(OCCOC)c(OCCOC)cc23)c1 [Erlotinib] | – | – | sensitivity (IC50) of high TN score vs low TN score cell lines (cancer cell lines [2]): more sensitive
15 | CCc1cc(Nc2nccc(-c3c(-c4ccc(OC)c(C(=O)Nc5c(F)cccc5F)c4)nc4ccccn34)n2)c(OC)cc1N1CCC(N2CCN(S(C)(=O)=O)CC2)CC1 [GSK1904529A] | – | – | sensitivity (−log10[IC50]) of high iBCR score vs low iBCR score breast cancer cell lines (breast cancer cell lines): significantly more sensitive
16 | CC(C)(C)Cn1c(N)nc2ccc(-c3[nH]c(C(C)(C)C)nc3-c3ccc(F)cc3)nc21 [LY2228820] | – | – | sensitivity (−log10[IC50]) of high iBCR score vs low iBCR score breast cancer cell lines (breast cancer cell lines): significantly more sensitive
17 | CS(=O)(=O)CCNCc1ccc(-c2ccc3ncnc(Nc4ccc(OCc5cccc(F)c5)c(Cl)c4)c3c2)o1 [Lapatinib] | – | – | sensitivity (IC50) of high TN score vs low TN score cell lines (cancer cell lines [2]): more sensitive
18 | Cc1cn(-c2cc(NC(=O)c3ccc(C)c(Nc4nccc(-c5cccnc5)n4)c3)cc(C(F)(F)F)c2)cn1 [Nilotinib] | – | less sensitive | sensitivity (IC50) of high TN score vs low TN score cell lines (cancer cell lines [2]): less sensitive; sensitivity (IC50) of high iBCR score vs low iBCR score cell lines (cancer cell lines [2]): less sensitive
19 | CC1(C)CC(=O)c2c(C(F)(F)F)nn(-c3ccc(C(N)=O)c(N[C@H]4CC[C@H](OC(=O)CN)CC4)c3)c2C1 [PF0429113] | – | – | sensitivity (−log10[IC50]) of high iBCR score vs low iBCR score breast cancer cell lines (breast cancer cell lines): significantly more sensitive
20 | Cn1cc(C2=C(c3ccc(Cl)cc3Cl)C(=O)NC2=O)c2ccccc21 [SB216763] | – | – | sensitivity of high Agro score vs low Agro score cell lines (cancer cell lines [1]): less sensitive
21 | COc1cc(N2CCC(N3CCN(C)CC3)CC2)ccc1Nc1ncc(Cl)c(Nc2ccccc2S(=O)(=O)C(C)C)n1 [TAE684] | – | – | sensitivity (IC50) of high TN score vs low TN score cell lines (cancer cell lines [2]): less sensitive; sensitivity (IC50) of high iBCR score vs low iBCR score cell lines (cancer cell lines [2]): less sensitive
22 | CN1CCN(c2ccc3nc(-c4c(N)c5c(F)cccc5[nH]c4=O)[nH]c3c2)CC1 [TKI258] | – | – | sensitivity (IC50) of high iBCR score vs low iBCR score cell lines (cancer cell lines [2]): less sensitive
23 | COc1ccc2c(c1)CC[C@@H]1[C@@H]2CC[C@]2(C)[C@@H](NCCCCCCN3C(=O)C=CC3=O)CC[C@@H]12 [U73122] | – | – | sensitivity (−log10[IC50]) of high iBCR score vs low iBCR score breast cancer cell lines (breast cancer cell lines): significantly more sensitive
24 | O=C(CCCCCCC(=O)Nc1ccccc1)NO [Vorinostat] | – | less sensitive | –
25 | CCOc1cc(N2CCC(O)CC2)ccc1Nc1ncc2c(n1)N(C)c1ccccc1C(=O)N2C [XMD 8-92] | – | – | sensitivity (−log10[IC50]) of high iBCR score vs low iBCR score breast cancer cell lines (breast cancer cell lines): significantly more sensitive

More lines, main results first:

Row | sensitivity (−log10[IC50]) of high TN score vs low TN score cell lines (cancer cell lines [1]) | Compound | sensitivity of high iBCR score vs low iBCR score cell lines (cancer cell lines [1]) | other results
26 | less sensitive | C[C@]1(O)C[C@@H](c2nc(-c3ccc4ccc(-c5ccccc5)nc4c3)c3c(N)nccn32)C1 [OSI-906] | – | –
27 | more sensitive | COc1cc(F)c(F)c(Nc2ccc(I)cc2F)c1NS(=O)(=O)C1(C[C@H](O)CO)CC1 [RDEA-119] | – | –
28 | less sensitive | CN(C)C(=N)N=C(N)N [metformin] | less sensitive | –
29 | less sensitive | CN(Cc1cnc2nc(N)nc(N)c2n1)c1ccc(C(=O)N[C@@H](CCC(=O)O)C(=O)O)cc1 [methotrexate] | less sensitive | –

— US20170107577A1, “Determining Cancer Aggressiveness, Prognosis and Responsiveness to Treatment” (THE COUNCIL OF THE QUEENSLAND INSTITUTE OF MEDICAL RESEARCH, priority 2014, published 2017)
